ChEMBL document CHEMBL1201862, “PubChem BioAssay data set” (2004)
The source made the active and inactive calls.

Legend:
[1] = molecular target: FAD-linked sulfhydryl oxidase ALR (Homo sapiens, UniProt P55789); assay: ALR-catalysed DTT oxidation blockers – biochemical, H2O2 detection, luminescence, cherry-pick, dose response (AID 493248)
[2] = molecular target: T1, Zinc finger protein mex-5 (Caenorhabditis elegans, UniProt Q9XUB2); assay: potency of MEX-5 RNA-binding blockers – biochemical, C. elegans, fluorescence polarization, dose response (AID 1960)
T1 sequence (Q9XUB2 whole entry): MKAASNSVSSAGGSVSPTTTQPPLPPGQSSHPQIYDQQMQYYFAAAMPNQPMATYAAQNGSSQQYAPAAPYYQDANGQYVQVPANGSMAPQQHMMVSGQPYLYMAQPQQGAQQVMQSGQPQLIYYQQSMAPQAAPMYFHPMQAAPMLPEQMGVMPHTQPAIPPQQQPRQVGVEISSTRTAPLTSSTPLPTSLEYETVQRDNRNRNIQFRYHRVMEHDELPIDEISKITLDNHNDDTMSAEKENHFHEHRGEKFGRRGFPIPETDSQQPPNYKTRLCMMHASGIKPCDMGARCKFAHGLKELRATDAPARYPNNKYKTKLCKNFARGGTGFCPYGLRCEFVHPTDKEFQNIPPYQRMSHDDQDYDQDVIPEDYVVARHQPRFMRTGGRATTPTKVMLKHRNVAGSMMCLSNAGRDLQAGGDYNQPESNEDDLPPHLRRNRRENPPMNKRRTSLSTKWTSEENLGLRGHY

[3] = molecular target: T2, RNA-binding protein pos-1 (Caenorhabditis elegans, UniProt G5EF15); assay: disruptors of C. elegans POS-1 RNA interaction – biochemical, fluorescence polarization, dose response (AID 1964);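 note: purified POS-1 fused to maltose binding protein made in E. coli; potency of compounds blocking POS-1 binding to fluorescent RNA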
T2 sequence (G5EF15 whole entry): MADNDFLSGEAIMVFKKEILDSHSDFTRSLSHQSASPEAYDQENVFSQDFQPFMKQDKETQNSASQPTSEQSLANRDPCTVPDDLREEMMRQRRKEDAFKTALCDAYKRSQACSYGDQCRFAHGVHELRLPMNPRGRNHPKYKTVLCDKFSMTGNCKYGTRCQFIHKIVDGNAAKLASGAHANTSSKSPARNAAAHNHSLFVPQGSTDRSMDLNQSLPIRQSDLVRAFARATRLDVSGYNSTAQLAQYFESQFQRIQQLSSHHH

[4] = viability of HCT116 lacking mutant beta-catenin – cell-based, human colon tumor, dose response (AID 1045); assay type: functional;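 note: HCT116 colon tumor cells with beta catenin knocked out; cells exposed to compound for 60 hours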
[5] = viability of PTEN-deleted HCT116 cells – cell-based, HCT116 PTEN knockout, dose response (AID 1047); assay type: functional;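 note: HCT116 colon tumor cells with PTEN knocked out; cells exposed to compound for 60 hours before readout; potency for loss of cell viability measured by luminescence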
[6] = alpha-synuclein stem-loop luciferase translation blockers – H4 neuroglioma cells, luminescence, confirmation (AID 1988); assay type: functional, cell-based
[7] = luciferase reporter signal suppression in cells – H4 neuroglioma cells, luminescence, dose response (AID 1990); assay type: functional, cell-based
[8] = Luminescence Cell-Based Dose Response HTS to Identify Inhibitors of 5'UTR Stem-Loop Driven Prion Protein mRNA Translation in H4 Neuroglioblastoma Cells. [Related pubchem assays: 1827 (Project Summary), 1813 (Primary HTS)]; assay type: functional
Vero = assay: cells; assay type: functional; settings: Chlorocebus sabaeus
Nonstructural protein 1 = Nonstructural protein 1 (Influenza A virus, UniProt Q194T2); assay type: functional, Influenza A virus (A/California/07/2009(H1N1))
Sequence of Nonstructural protein 1 (Q194T2 whole entry, the tested form may be a part): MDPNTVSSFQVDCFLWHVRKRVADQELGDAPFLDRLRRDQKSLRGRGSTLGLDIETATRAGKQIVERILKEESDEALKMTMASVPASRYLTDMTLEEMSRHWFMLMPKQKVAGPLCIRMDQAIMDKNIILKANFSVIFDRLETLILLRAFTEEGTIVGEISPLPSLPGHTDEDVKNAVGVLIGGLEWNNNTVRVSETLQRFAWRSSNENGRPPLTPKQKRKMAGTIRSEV

[9] = molecular target: T3, Polyadenylate-binding protein 1 (Homo sapiens, UniProt P11940); assay: MLLE domain peptide-binding blockers, IC50 – biochemical, fluorescence polarization, FITC-PAM2 peptide, dose response (AID 602259); assay type: functional; settings: read-out: IC50_Mean
T3 sequence (P11940 whole entry, the tested form may be a part): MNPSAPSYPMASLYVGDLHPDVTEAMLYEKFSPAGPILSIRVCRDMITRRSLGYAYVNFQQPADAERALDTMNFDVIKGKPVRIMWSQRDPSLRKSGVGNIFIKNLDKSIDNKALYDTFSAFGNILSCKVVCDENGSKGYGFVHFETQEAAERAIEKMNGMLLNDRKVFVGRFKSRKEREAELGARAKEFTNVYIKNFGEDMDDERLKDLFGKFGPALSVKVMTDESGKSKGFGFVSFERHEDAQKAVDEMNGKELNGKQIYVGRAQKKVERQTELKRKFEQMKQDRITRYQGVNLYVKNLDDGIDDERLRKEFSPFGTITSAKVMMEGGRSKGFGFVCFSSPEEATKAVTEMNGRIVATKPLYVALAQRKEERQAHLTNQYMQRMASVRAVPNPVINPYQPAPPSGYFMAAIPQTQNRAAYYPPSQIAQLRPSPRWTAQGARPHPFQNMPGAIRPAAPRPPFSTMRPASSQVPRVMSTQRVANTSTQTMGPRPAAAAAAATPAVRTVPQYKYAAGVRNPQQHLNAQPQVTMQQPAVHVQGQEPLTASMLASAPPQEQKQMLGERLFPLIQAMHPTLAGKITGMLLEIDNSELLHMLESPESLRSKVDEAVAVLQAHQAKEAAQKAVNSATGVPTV

[10] = molecular target: T3, Polyadenylate-binding protein 1; assay: MLLE binding blockers, Cy5 peptide tracer – biochemical, fluorescence polarization, Cy5-PAM2 peptide, secondary, miRNA deadenylation inhibitor project, dose response (AID 602260); assay type: functional; settings: read-out: IC50_Mean
[11] = microbe, parasite or virus in culture; assay type: functional; settings: Mycobacterium tuberculosis
[12] = viability of uninfected HEp-2 cells – cell-based, HTS, cytotoxicity control for RSV inhibitor project, dose response (AID 2410); assay type: functional; settings: human respiratory syncytial virus
Protein RecA = molecular target: T4, Protein RecA (Mycobacterium tuberculosis, UniProt P9WHJ3); assay: Fluorescence Cell-Free Homogeneous Dose Retest to Identify Inhibitors of RecA-Intein Splicing Activity. [Related pubchem assays (depositor defined):AID2097, AID2223, AID489010, AID492950]; assay type: functional
T4 sequence (P9WHJ3 whole entry): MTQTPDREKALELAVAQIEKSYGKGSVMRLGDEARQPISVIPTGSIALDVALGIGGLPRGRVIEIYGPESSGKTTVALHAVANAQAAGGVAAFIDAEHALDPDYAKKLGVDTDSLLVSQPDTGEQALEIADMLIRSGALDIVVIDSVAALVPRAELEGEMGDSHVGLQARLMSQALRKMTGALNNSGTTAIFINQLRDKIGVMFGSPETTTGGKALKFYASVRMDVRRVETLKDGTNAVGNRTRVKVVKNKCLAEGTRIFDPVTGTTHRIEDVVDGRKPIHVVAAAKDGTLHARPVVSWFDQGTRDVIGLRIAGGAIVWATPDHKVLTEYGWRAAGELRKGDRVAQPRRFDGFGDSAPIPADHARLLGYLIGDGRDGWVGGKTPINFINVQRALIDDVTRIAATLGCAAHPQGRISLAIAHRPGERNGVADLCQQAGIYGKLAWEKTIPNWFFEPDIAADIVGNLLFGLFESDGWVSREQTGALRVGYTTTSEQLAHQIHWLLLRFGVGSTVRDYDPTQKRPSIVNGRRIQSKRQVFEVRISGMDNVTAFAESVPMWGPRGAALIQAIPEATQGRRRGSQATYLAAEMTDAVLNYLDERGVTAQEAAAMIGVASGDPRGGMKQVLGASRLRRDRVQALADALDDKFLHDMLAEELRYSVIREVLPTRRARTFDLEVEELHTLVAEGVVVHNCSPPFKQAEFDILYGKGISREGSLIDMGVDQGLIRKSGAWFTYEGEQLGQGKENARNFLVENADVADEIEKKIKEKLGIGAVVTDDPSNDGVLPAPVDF

[13] = molecular target: T5, Replicative DNA helicase DnaB (Mycobacterium tuberculosis, UniProt P9WMR3); assay: DnaB intein splicing inhibitors, dose response, biochemical, cell-free fluorescence (AID 449749); assay type: functional
T5 sequence (P9WMR3 whole entry): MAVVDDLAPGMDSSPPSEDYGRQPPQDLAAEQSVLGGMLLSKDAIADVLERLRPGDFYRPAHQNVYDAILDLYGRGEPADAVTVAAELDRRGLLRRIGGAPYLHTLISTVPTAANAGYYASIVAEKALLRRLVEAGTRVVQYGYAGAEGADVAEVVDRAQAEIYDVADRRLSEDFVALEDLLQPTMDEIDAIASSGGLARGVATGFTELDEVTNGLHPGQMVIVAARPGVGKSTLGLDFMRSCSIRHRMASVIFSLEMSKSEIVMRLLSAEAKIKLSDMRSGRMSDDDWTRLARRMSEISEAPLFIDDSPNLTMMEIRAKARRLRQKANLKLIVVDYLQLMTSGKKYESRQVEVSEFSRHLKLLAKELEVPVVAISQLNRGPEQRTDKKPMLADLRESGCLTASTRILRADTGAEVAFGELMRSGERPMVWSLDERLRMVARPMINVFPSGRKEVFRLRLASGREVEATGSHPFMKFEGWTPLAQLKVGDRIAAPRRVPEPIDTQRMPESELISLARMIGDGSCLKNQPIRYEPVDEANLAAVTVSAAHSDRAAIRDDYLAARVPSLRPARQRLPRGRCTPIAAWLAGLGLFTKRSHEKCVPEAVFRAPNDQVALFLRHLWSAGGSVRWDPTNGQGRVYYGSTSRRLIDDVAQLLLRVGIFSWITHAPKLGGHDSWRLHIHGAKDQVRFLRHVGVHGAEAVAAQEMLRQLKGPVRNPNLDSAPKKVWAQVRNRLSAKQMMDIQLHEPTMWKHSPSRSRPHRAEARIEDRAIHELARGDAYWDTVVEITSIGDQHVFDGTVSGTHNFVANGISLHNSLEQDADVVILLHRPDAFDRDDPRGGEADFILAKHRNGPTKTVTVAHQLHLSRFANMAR

Sequence of FAD-linked sulfhydryl oxidase ALR (P55789 whole entry): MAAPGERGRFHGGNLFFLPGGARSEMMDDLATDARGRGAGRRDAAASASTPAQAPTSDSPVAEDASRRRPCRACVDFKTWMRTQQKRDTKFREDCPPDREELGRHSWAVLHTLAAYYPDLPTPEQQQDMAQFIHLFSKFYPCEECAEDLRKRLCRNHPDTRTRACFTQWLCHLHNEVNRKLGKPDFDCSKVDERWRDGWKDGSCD

## CCNc1ccc(S(=O)(=O)N(C)C)cc1NCC(=O)Nc1ccccc1F
[1]
  AC50: 1.8 µM (active)

## COC(=O)CCC(=O)OC1(C)C(=O)C=C2C=C(C3CC3)OC=C2C1=O (stereo unspecified)
[2]
  EC50: 68.8 µM (inconclusive)
[3]
  EC50: 17.7 µM (active)

## CCOC(=O)C(C(=O)OCC)C(C(=O)OCC)N1CCOCC1 (stereo unspecified)
[4]
  EC50: 5.16 µM (active)
[5]
  EC50: 6.34 µM (active)

## COC(=O)C1=C(C)N(c2cc(Cl)cc(Cl)c2)C(=O)C1
[4]
  EC50: 42.9 µM (active)
[5]
  EC50: 35.6 µM (active)

## N#Cc1cc(C(=O)c2ccccc2OCC(=O)Nc2ccccc2Cl)cn(C2CCCCC2)c1=O
[6]
  EC50: > 120 µM (not active)
[7]
  EC50: 22 µM (active)
[8]
  EC50: > 120 µM (not active)

## Cc1cc(S(=O)(=O)N2CCN(c3ccccc3O)CC2)c(C)s1
[1]
  AC50: 0.156 µM (active)

## COc1ccc(CSc2nc(O)cc(=O)n2CC(C)C)cc1F
[1]
  AC50: 0.949 µM (active)

## COc1ccccc1N1CCN(CC(O)c2c(C)[nH]c3ccccc23)CC1 (stereo unspecified)
Vero
  CC50: > 25 µM (active)

## O=C(CN1C(=O)c2cccc3cccc(c23)C1=O)N1CCN(Cc2ccc3c(c2)OCO3)CC1
Nonstructural protein 1
  IC50: > 100 µM (active)

## Cc1c(NC(=O)CCC2CCCCC2)cc(C(=O)N2CCOCC2)cc1[N+](=O)[O-]
[6]
  EC50: > 120 µM (not active)
[7]
  EC50: > 120 µM (not active)
[8]
  EC50: > 120 µM (not active)

## C#CCOCCOCCOCCNc1nc(N2CCN(C(=O)[C@H]([C@@H](C)CC)n3cc([C@@H](N)CO)nn3)CC2)nc(N2CCN(C(=O)[C@H]([C@@H](C)CC)n3cc([C@@H](N)CC(C)C)nn3)CC2)n1
[9]
  IC50: 43.1 µM (inactive)
[10]
  IC50: > 66 µM (inactive)
[2]
  EC50: 18 µM (active)
[3]
  EC50: 24.4 µM (active)

## Cc1ccc(-c2nc(-c3ccccn3)sc2CC(=O)O)cc1
[1]
  AC50: 0.226 µM (active)

## CCN(CC)c1ccc(Nc2nc(N3CCOCC3)c3ccccc3n2)cc1
Nonstructural protein 1
  IC50: 11.5 µM (active)

## COC(=O)c1c(NC(=O)CCl)sc(C(=O)N2CCOCC2)c1C
[11]
  CC50: 16.4 µM (active)

## O=C(Nc1nnc(-c2cccnc2)o1)c1cccc([N+](=O)[O-])c1
[1]
  AC50: 1.61 µM (active)

## CCN(CC)S(=O)(=O)c1ccc(C2=NOC3(C2)N(C)c2ccccc2C3(C)C)cc1 (stereo unspecified)
[12]
  CC50: > 50 µM (active)
[6]
  EC50: 0.516 µM (active)
[7]
  EC50: > 120 µM (not active)
[8]
  EC50: 29 µM (active)

## C=CCn1c(SCc2cc(=O)n3ccsc3n2)nc2sc(C)c(C)c2c1=O
[6]
  EC50: > 120 µM (not active)
[7]
  EC50: 15.3 µM (active)
[8]
  EC50: > 120 µM (not active)

## O=c1[nH]c(CN2CCc3ccccc3C2)nc2ccccc12
[9]
  IC50: > 66 µM (inactive)
[10]
  IC50: > 66 µM (inactive)
[2]
  EC50: > 300 µM (not active)
[3]
  EC50: > 300 µM (not active)

## COc1ccccc1NC(=O)C1=C(C)N(c2ccccc2)C(S)=NC1c1cccc(C(F)(F)F)c1 (stereo unspecified)
[4]
  EC50: 13.7 µM (active)
[5]
  EC50: 14.3 µM (active)

## COc1cccc(N2C(=O)NC(=O)/C(=C/Nc3c(C)n(C)n(-c4ccccc4)c3=O)C2=O)c1
[2]
  EC50: > 300 µM (not active)
[3]
  EC50: > 300 µM (not active)

## CC(=O)Nc1ccc(N2C(=O)CSC2c2ccccc2[N+](=O)[O-])cc1 (stereo unspecified)
[1]
  AC50: 0.517 µM (active)

## CN(C)c1ccc(CN(Cc2ccco2)C(=O)c2ccco2)cc1
[1]
  AC50: 0.822 µM (active)

## O=[N+]([O-])c1ccc(C2CC(c3ccccc3)=Nc3ccccc3S2)cc1 (stereo unspecified)
[11]
  CC50: 37.4 µM (active)

## CC(C)OC(=O)CC(=O)CSc1nc2c(cc1C#N)CCC2
[4]
  EC50: 8.4 µM (active)
[5]
  EC50: 5.82 µM (active)

## COc1ccc(Br)cc1CNc1ccc2[nH]c(O)nc2c1
[1]
  AC50: 1.08 µM (active)

## CC(C)C[C@H]1CN([C@@H](CC(C)C)CN2CCCC2CN2C(=S)NC[C@@H]2Cc2ccc(O)cc2)C(=S)N1CC1CCCCCC1 (stereo partly specified)
Vero
  CC50: 20.9 µM (active)

## NC(=O)c1cccc(/N=C/c2cc(Cl)cc(Cl)c2O)c1
[2]
  EC50: > 300 µM (not active)
[3]
  EC50: > 300 µM (not active)

## O=C(NCc1ccccn1)C(=O)N/N=C/c1ccccc1O
Nonstructural protein 1
  IC50: 14 µM (active)

## COc1ccc(C2C(C#N)=C(/N=C/N3CCOCC3)OC3=C2C(=O)CC(C)(C)C3)cc1OC (stereo unspecified)
[2]
  EC50: > 300 µM (not active)
[3]
  EC50: > 300 µM (not active)

## Clc1ccc(Sc2oc(/C=N/n3cnnc3)cc2Br)cc1
Protein RecA
  EC50: 8.65 µM (active)
[13]
  AC50: 2 µM (active)
[4]
  EC50: 43.8 µM (active)
[5]
  EC50: 15.2 µM (active)
